# Assay results published in US20250101034A1, “COMPOSITIONS USEFUL FOR MODULATING SPLICING” (SKYHAWK THERAPEUTICS, INC., priority 2021, published 2025).
# What was measured:
# [1] = system: ATXN3 transcripts containing exon 4 (E4E5); assay: ATXN3 quantitative splicing assay (qPCR, SK-N-MC cells); assay type: cell-based; settings: Homo sapiens, 24 h treatment, qPCR E4E5 primers/probe, read-out: ATXN3 Potency - Splicing E4E5 IC50
# Experimental: Human neuroblastoma SK-N-MC cells were plated in 384-well plates at 20,000 cells/well. Twenty-four hours after plating, cells were treated with compounds for 24 h at appropriate concentrations ranging from 30 μM to 0.6 nM (0.3% DMSO). Treated cells were lysed in 15 μL of lysis buffer, and cDNA was synthesized using the Fast Advanced Cells-to-Ct kit. Two μL of each cDNA was used in qPCR reactions to confirm the exon 4 skipped transcripts of ATXN3. A second set of primers/probe E4E5 was used to detect the transcripts containing exon 4. The third set of primers/probe E8E9 was used to detect total gene level of ATXN3. The qPCR reactions were prepared in 384-well plates in 10 μL volume, using TaqMan™ Fast Advanced Master Mix with primers and probes shown in the table below. Reactions were run in a Quant Studio 6 qPCR instrument with default settings.
# The primers and probes are listed below in Table 4.
# total ATXN3 protein = assay: ATXN3 total protein assay (MSD, SK-N-MC cells); assay type: cell-based, Human; settings: 48 hours incubation, read-out: ATXN3 Potency - Protein IC50
# Experimental: Human neuroblastoma SK-N-MC cells were seeded at 10,000 cells/well in 384 well plates one day prior to compound treatment. The concentrations of compounds were tested at appropriate doses ranging from 30 μM to 0.6 nM. After incubation for 48 hours, the cells were lysed with 25 μL of lysis buffer containing protease inhibitors, and total ATXN3 protein levels were assessed by Mesoscale Discovery (MSD) assay developed with one pair of anti-ATXN3 antibodies. The capture and detect antibodies were raised in mouse and rabbit respectively. Anti-rabbit MSD-ST antibody was used for secondary antibody.
# ATXN3 recombinant protein was used for standards. The readouts were captured with 35 μL of MSD read buffer and multi-array 384-well high binding plates.
SMILES,IC50 [1] [µM],IC50 (total ATXN3 protein) [µM]
"Cc1c([C@H](O)[C@H](C)N)sc2c(NCc3cccs3)cnnc12 (single isomer, unassigned) [Compound 41]",10 to 40,10 to 40
"Cc1c([C@@H](O)[C@H](C)N)sc2c(NCc3cccs3)cnnc12 (single isomer, unassigned) [Compound 42]",5 to 10,5 to 10
"Cc1c(C[C@@H](N)CO)sc2c(NCc3ccco3)cnnc12 [Compound 1, (2R)-2-amino-3-(4-{[(furan-2-yl)methyl]amino}-7-methylthieno[3,2-c]pyridazin-6-yl)propan-1-ol]",0.501 to 5,0.501 to 5
"Cc1c(C[C@H](C)N)sc2c(NCc3ccco3)cnnc12 [Compound 2, 6-[(2S)-2-aminopropyl]-N-(furan-2-ylmethyl)-7-methylthieno[3,2-c]pyridazin-4-amine]",0.501 to 5,0.501 to 5
"Cc1c(C[C@@H](N)CO)sc2c(NCc3cccs3)cnnc12 [Compound 3, (2R)-2-amino-3-{7-methyl-4-[(thiophen-2-ylmethyl)amino]thieno[3,2-c]pyridazin-6-yl}propan-1-ol]",0.501 to 5,0.501 to 5
"Cc1c(C[C@H](C)N)sc2c(NCc3cccs3)cnnc12 [Compound 4, 6-[(2S)-2-aminopropyl]-7-methyl-N-(thiophen-2-ylmethyl)thieno[3,2-c]pyridazin-4-amine]",0.501 to 5,0.101 to 0.5
"Cc1c(C[C@@H](N)CO)sc2c(NCc3nccs3)cnnc12 [Compound 5, (2R)-2-amino-3-(7-methyl-4-{[(1,3-thiazol-2-yl)methyl]amino}thieno[3,2-c]pyridazin-6-yl)propan-1-ol]",10 to 40,10 to 40
"Cc1c(C[C@H](C)N)sc2c(NCc3nccs3)cnnc12 [Compound 6, 6-[(2S)-2-aminopropyl]-7-methyl-N-[(1,3-thiazol-2-yl)methyl]thieno[3,2-c]pyridazin-4-amine]",0.501 to 5,0.501 to 5
"Cc1c(C[C@@H](N)CO)sc2c(NCc3ccsc3)cnnc12 [Compound 7, (2R)-2-amino-3-(7-methyl-4-{[(thiophen-3-yl)methyl]amino}thieno[3,2-c]pyridazin-6-yl)propan-1-ol]",0.501 to 5,0.501 to 5
"Cc1c(C[C@H](C)N)sc2c(NCc3ccsc3)cnnc12 [Compound 8, 6-[(2S)-2-aminopropyl]-7-methyl-N-[(thiophen-3-yl)methyl]thieno[3,2-c]pyridazin-4-amine]",0.501 to 5,0.501 to 5
"Cc1c(C[C@@H](N)CO)sc2c(NCc3sccc3F)cnnc12 [Compound 9, (2R)-2-amino-3-(4-{[(3-fluorothiophen-2-yl)methyl]amino}-7-methylthieno[3,2-c]pyridazin-6-yl)propan-1-ol]",10 to 40,10 to 40
"Cc1c(C[C@@H]2CCCN2)sc2c(NCc3cccs3)cnnc12 [Compound 70, 7-methyl-6-{[(2S)-pyrrolidin-2-yl]methyl}-N-[(thiophen-2-yl)methyl]thieno[3,2-c]pyridazin-4-amine]",,10 to 40
"Cc1ccc(CNc2cnnc3c(C)c(C[C@H](C)N)sc23)s1 [Compound 77, 6-[(2S)-2-aminopropyl]-7-methyl-N-[(5-methylthiophen-2-yl)methyl]thieno[3,2-c]pyridazin-4-amine]",,10 to 40
"Cc1ccsc1CNc1cnnc2c(C)c(C[C@H](C)N)sc12 [Compound 78, 6-[(2S)-2-aminopropyl]-7-methyl-N-[(3-methylthiophen-2-yl)methyl]thieno[3,2-c]pyridazin-4-amine]",,10 to 40
"Cc1csc(CNc2cnnc3c(C)c(C[C@H](C)N)sc23)c1 [Compound 79, 6-[(2S)-2-aminopropyl]-7-methyl-N-[(4-methylthiophen-2-yl)methyl]thieno[3,2-c]pyridazin-4-amine]",,10 to 40
"CC(=O)CCc1sc2c(NCc3cccs3)cnnc2c1C [Compound 88, 4-{7-methyl-4-[(thiophen-2-ylmethyl)amino]thieno[3,2-c]pyridazin-6-yl}butan-2-one]",,10 to 40
